Experimental data as given in patent EP0008888A1, “Beta-lactam antibacterial compounds, their preparation and pharmaceutical compositions containing them” (BEECHAM GROUP PLC, priority 1978, dated 1980).
Values after ≈ are worked out from the molar mass of the structure shown. Like-named read-outs stand apart in the source and are kept apart here.

Key:
Assay in all cases: MIC in a standard test
Type in all cases: cell-based
[1] = test system: Streptococcus pyogenes CN10
[2] = test system: Salmonella typhimurium CT10; settings: Salmonella enterica
Streptococcus faecalis I = settings: Enterococcus faecalis
Citrobacter freundii E8 = test system: Citrobacter freundii E8
[3] = test system: Staphylococcus aureus 1517
Shigella sonnei MB 11967 = settings: MB11967
[4] = test system: Staphylococcus aureus Russell
Proteus morganii I580 = settings: Morganella morganii
Proteus vulgaris WO91 = test system: Proteus vulgaris WO91
[5] = test system: Streptococcus pneumoniae CN33
Serratia marcescens US20 = test system: Serratia marcescens US20
Proteus mirabilis C977 = test system: Proteus mirabilis C977
Enterobacter cloacoae N1 = test system: Enterobacter cloacoae N1
Pseudomonas aeruginosa A = test system: Pseudomonas aeruginosa A
Proteus rettgeri WM16 = settings: Providencia rettgeri
Escherichia coli 0111 = test system: Escherichia coli 0111
[6] = test system: Staphylococcus aureus Oxford
Escherichia coli JT39 = test system: Escherichia coli JT39
Bacillus subtilis A = test system: Bacillus subtilis A
Klebsiella aerogenes A = test system: Klebsiella aerogenes A
[7] = standard test, Escherichia coli JT39, read-out: MIC

Row | SMILES | MIC [1] | MIC [2] | MIC (Streptococcus faecalis I) | MIC (Citrobacter freundii E8) | MIC [3] | MIC (Shigella sonnei MB 11967) | MIC [4] | MIC (Proteus morganii I580) | MIC (Proteus vulgaris WO91) | MIC [5] | MIC (Serratia marcescens US20) | MIC (Proteus mirabilis C977) | MIC (Enterobacter cloacoae N1) | MIC (Pseudomonas aeruginosa A) | MIC (Proteus rettgeri WM16) | MIC (Escherichia coli 0111) | MIC [6] | MIC (Escherichia coli JT39; [7]) | MIC (Bacillus subtilis A) | MIC (Klebsiella aerogenes A) | further results
1 | CCSC1=C(C(=O)O)N2C(=O)[C@@H](C)[C@H]2C1 (relative stereo) [Example 79, Sodium 3 - ethylthio-6β - methyl - 7 - oxo - 1 - azabicyclo [3.2 .O] hept - 2 - ene - 2 - carboxylate] | 3.1 mg/L | 3.1 mg/L | > 50 mg/L | 6.2 mg/L | > 50 mg/L | 3.1 mg/L | 6.2 mg/L | 25 mg/L | 25 mg/L | 0.8 mg/L | 12.5 mg/L | 6.2 mg/L | 6.2 mg/L | > 50 mg/L | 25 mg/L | 6.2 mg/L | 3.1 mg/L | 6.2 mg/L | 6.2 mg/L | 3.1 mg/L | –
2 | CCSC1=C(C(=O)OCc2ccc([N+](=O)[O-])cc2)N2C(=O)[C@@H](CCN=[N+]=[N-])[C@H]2C1 (relative stereo) [Example 82, p - Nitrobenzyl - 6β-(2 - azidoethyl) - 3 - ethylthio - 7 - oxo - 1 - azabicyclo [3.2.O] hept-2 - ene - 2 - carboxylate] | – | 3.1 mg/L (≈ 7.43 µM) | 50 mg/L (≈ 120 µM) | 3.1 mg/L (≈ 7.43 µM) | 50 mg/L (≈ 120 µM) | 3.1 mg/L (≈ 7.43 µM) | 1.6 mg/L (≈ 3.83 µM) | 12.5 mg/L (≈ 29.9 µM) | 12.5 mg/L (≈ 29.9 µM) | – | 12.5 mg/L (≈ 29.9 µM) | 12.5 mg/L (≈ 29.9 µM) | 12.5 mg/L (≈ 29.9 µM) | > 50 mg/L | 6.2 mg/L (≈ 14.9 µM) | 1.6 mg/L (≈ 3.83 µM) | 0.8 mg/L (≈ 1.92 µM) | 12.5 mg/L (≈ 29.9 µM) | 1.6 mg/L (≈ 3.83 µM) | 1.6 mg/L (≈ 3.83 µM) | –
3 | CCSC1=C(C(=O)[O-])N2C(=O)CC2C1.[Na+] (stereo not drawn) [Example 7, Sodium 3-ethylthio-7-oxo-1-azabicyclo(3,2,0)hept-2-ene-2-carboxylate] | 1 mg/L | 2.5 mg/L | 100 mg/L | 2.5 mg/L | > 100 mg/L | 5.2 mg/L | 10 mg/L | 10 mg/L | 50 mg/L | 1 mg/L | 10 mg/L | 10 mg/L | 2.5 mg/L | > 100 mg/L | 50 mg/L | 2.5 mg/L | 5 mg/L | – | 1 mg/L | 1 mg/L | MIC (Escherichia coli JT39; Escherichia coli, JT39): 50 mg/L
4 | CCSC1=C(C(=O)OC2OC(=O)c3ccccc32)N2C(=O)C[C@H]2C1 (stereo partly drawn) [Example 9, Phthalidyl 3-ethylthio-7-oxo-1-azabicyclo[3.2.0]hept-2-ene-2-carboxylate] | 12.5 mg/L (≈ 36.2 µM) | 12.5 mg/L (≈ 36.2 µM) | > 50 mg/L | 12.5 mg/L (≈ 36.2 µM) | > 50 mg/L | 12.5 mg/L (≈ 36.2 µM) | > 50 mg/L | 25 mg/L (≈ 72.4 µM) | > 50 mg/L | – | 50 mg/L (≈ 145 µM) | 25 mg/L (≈ 72.4 µM) | – | > 50 mg/L | > 50 mg/L | 12.5 mg/L (≈ 36.2 µM) | > 50 mg/L | > 50 mg/L | 25 mg/L (≈ 72.4 µM) | 12.5 mg/L (≈ 36.2 µM) | –
5 | NCCSC1=C(C(=O)O)N2C(=O)CC2C1 (stereo not drawn) [Example 15, 3-Aminoethylthio-7-oxo-1-azabicyclo[3.2.0]hept-2-ene-2-carboxylic acid] | 0.4 mg/L (≈ 1.75 µM) | 3.1 mg/L (≈ 13.6 µM) | 25 mg/L (≈ 110 µM) | 3.1 mg/L (≈ 13.6 µM) | – | 3.1 mg/L (≈ 13.6 µM) | > 3.1 mg/L | 25 mg/L (≈ 110 µM) | 25 mg/L (≈ 110 µM) | 0.2 mg/L (≈ 0.876 µM) | 6.2 mg/L (≈ 27.2 µM) | 25 mg/L (≈ 110 µM) | 3.1 mg/L (≈ 13.6 µM) | 6.2 mg/L (≈ 27.2 µM) | 25 mg/L (≈ 110 µM) | 3.1 mg/L (≈ 13.6 µM) | 0.8 mg/L (≈ 3.5 µM) | 1.6 mg/L (≈ 7.01 µM) | 0.8 mg/L (≈ 3.5 µM) | 1.6 mg/L (≈ 7.01 µM) | –
6 | COC(=O)CCSC1=C(C(=O)O)N2C(=O)C[C@H]2C1 [Example 23, Potassium 3-(2-methoxycarbonylethvlthio)-7-oxo-l-azabicyclo[3.2.0]hept-2-ene-2-carboxylate] | 0.8 mg/L | 3.1 mg/L | > 50 mg/L | 1.6 mg/L | > 50 mg/L | – | 50 mg/L | 25 mg/L | 25 mg/L | ≤ 0.2 mg/L | 25 mg/L | 12.5 mg/L | – | > 50 mg/L | 25 mg/L | 1.6 mg/L | 12.5 mg/L | 6.2 mg/L | 3.1 mg/L | 1.6 mg/L | –
7 | COCCSC1=C(C(=O)O)N2C(=O)C[C@H]2C1 [Example 32, Sodium 3-(2-methxyethylthio)-7-oxo-1-azabicyclo[3.2.0] hept-2-ene-2-carboxylate] | 1.6 mg/L | 3.1 mg/L | 50 mg/L | 3.1 mg/L | > 50 mg/L | 3.1 mg/L | 25 mg/L | 50 mg/L | 50 mg/L | ≤ 0.2 mg/L | 12.5 mg/L | 6.2 mg/L | 6.2 mg/L | > 100 mg/L | 50 mg/L | 3.1 mg/L | 6.2 mg/L | 6.2 mg/L | 1.6 mg/L | 1.6 mg/L | –
8 | CNC(=O)OCCSC1=C(C(=O)[O-])N2C(=O)CC2C1.[Na+] (stereo not drawn) [Example 37, Sodium 3-(2-methylcarbamoyloxyethylthio)-7-oxo-1-azabicyclo [3.2.0]hept-2-ene-2-carboxylate] | ≤ 0.2 mg/L | 0.8 mg/L | 25 mg/L | 1.6 mg/L | > 50 mg/L | 0.8 mg/L | 12.5 mg/L | 12.5 mg/L | 12.5 mg/L | ≤ 0.2 mg/L | 6.2 mg/L | 1.6 mg/L | 1.6 mg/L | > 50 mg/L | 12.5 mg/L | 0.8 mg/L | 1.6 mg/L | – | 0.8 mg/L | 0.4 mg/L | MIC (Escherichia coli JT39; Escherichia coli, JT39): 6.2 mg/L
9 | CSC1=C(C(=O)[O-])N2C(=O)CC2C1.[Na+] (stereo not drawn) [Example 42, Sodium 3-methylthio-7-oxo-1-azabicyclo[3.2.0]hept-2-ene-2-carboxylate] | 0.8 mg/L | 3.1 mg/L | > 50 mg/L | 1.6 mg/L | > 50 mg/L | 3.1 mg/L | 12.5 mg/L | 25 mg/L | 25 mg/L | ≤ 0.2 mg/L | 3.1 mg/L | 25 mg/L | 3.1 mg/L | > 50 mg/L | 25 mg/L | 3.1 mg/L | 6.2 mg/L | – | 1.6 mg/L | 3.1 mg/L | MIC (Escherichia coli JT39; Escherichia coli, JT39): 6.2 mg/L
10 | O=C(O)C1=C(SCc2ccccc2)C[C@@H]2CC(=O)N12 [Example 47, Sodium 3-benzylthio-7-oxo-1-azabicyclo[3.2.0]hept-2-ene-2-carboxvlate] | 1.6 mg/L | 6.2 mg/L | > 50 mg/L | 25 mg/L | > 50 mg/L | 6.2 mg/L | 6.2 mg/L | 50 mg/L | > 50 mg/L | ≤ 0.2 mg/L | 50 mg/L | 50 mg/L | 12.5 mg/L | > 50 mg/L | > 50 mg/L | 6.2 mg/L | 6.2 mg/L | 50 mg/L | 1.6 mg/L | 6.2 mg/L | –
11 | CCSC1=C(C(=O)OC2OC(=O)c3ccccc32)N2C(=O)[C@@H](CC)[C@H]2C1 (stereo partly drawn) [Example 75, Phthalidyl 6β-ethyl - 3-ethylthio - 7 - oxo - 1 - azabicyclo [3.2.0] hept - 2 - ene - 2-carboxylate] | 5 mg/L (≈ 13.4 µM) | 12.5 mg/L (≈ 33.5 µM) | > 50 mg/L | 25 mg/L (≈ 66.9 µM) | > 50 mg/L | 12.5 mg/L (≈ 33.5 µM) | 12.5 mg/L (≈ 33.5 µM) | 25 mg/L (≈ 66.9 µM) | 50 mg/L (≈ 134 µM) | 1.2 mg/L (≈ 3.21 µM) | 50 mg/L (≈ 134 µM) | 25 mg/L (≈ 66.9 µM) | 12.5 mg/L (≈ 33.5 µM) | > 50 mg/L | 25 mg/L (≈ 66.9 µM) | 25 mg/L (≈ 66.9 µM) | 5 mg/L (≈ 13.4 µM) | 50 mg/L (≈ 134 µM) | 5 mg/L (≈ 13.4 µM) | 25 mg/L (≈ 66.9 µM) | –
